Laboratory results from article PMC7254505 (ACS Omega, 2020).
pIC50: −log10 of the molar value. Values belong to the compound of their own block, whether it stands above or below them.

Experiments:
[1] = cited from earlier work
[2] = cited from earlier work; remark: listed apart in the source
[3] = system: ALK2 over ALK5; settings: cited from earlier work
[4] = target: T1, ALK2 (R206H) (Homo sapiens, UniProt Q04771, R206H); experiment: In vitro enzyme assay; type: biochemical
T1 sequence (Q04771 21-509 R206H): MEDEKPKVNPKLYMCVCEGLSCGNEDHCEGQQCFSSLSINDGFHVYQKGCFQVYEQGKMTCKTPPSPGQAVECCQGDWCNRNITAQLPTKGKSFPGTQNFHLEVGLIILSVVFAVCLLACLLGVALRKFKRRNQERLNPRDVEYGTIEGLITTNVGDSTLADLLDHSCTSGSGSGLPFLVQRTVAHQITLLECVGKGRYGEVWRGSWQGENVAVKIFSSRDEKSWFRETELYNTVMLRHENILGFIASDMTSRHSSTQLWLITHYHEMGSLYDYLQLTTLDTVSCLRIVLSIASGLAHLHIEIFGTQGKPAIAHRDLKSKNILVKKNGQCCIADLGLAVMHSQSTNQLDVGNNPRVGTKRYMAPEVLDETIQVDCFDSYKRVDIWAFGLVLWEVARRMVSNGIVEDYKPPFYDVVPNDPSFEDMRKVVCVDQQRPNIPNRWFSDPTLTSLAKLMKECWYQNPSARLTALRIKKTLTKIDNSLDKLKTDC

[5] = Aqueous solubility; type: physicochemical
[6] = Partition coefficient; type: physicochemical
[7] = Plasma protein binding; type: in vitro ADME
[8] = target: T2, CYP1A2 (Homo sapiens, UniProt P05177); experiment: Cytochrome P450 inhibition, CYP1A2; type: in vitro ADME
T2 sequence (P05177 1-516): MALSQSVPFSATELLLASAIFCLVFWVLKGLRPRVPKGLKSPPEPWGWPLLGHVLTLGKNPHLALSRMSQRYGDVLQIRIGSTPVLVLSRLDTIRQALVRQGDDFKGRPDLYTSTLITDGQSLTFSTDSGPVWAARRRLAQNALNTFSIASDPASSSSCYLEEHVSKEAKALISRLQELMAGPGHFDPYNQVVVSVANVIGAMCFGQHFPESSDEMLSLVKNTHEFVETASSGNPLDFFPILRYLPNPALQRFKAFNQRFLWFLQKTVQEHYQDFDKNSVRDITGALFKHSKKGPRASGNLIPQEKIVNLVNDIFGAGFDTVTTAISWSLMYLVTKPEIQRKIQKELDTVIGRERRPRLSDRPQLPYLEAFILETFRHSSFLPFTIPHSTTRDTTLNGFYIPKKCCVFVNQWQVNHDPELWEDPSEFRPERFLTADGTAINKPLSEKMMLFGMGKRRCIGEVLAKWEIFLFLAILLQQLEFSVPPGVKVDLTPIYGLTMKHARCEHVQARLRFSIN

[9] = target: CYP2C9 (Homo sapiens, UniProt P11712); experiment: Cytochrome P450 inhibition, CYP2C9; type: in vitro ADME
CYP2C9, sequence (P11712 whole entry): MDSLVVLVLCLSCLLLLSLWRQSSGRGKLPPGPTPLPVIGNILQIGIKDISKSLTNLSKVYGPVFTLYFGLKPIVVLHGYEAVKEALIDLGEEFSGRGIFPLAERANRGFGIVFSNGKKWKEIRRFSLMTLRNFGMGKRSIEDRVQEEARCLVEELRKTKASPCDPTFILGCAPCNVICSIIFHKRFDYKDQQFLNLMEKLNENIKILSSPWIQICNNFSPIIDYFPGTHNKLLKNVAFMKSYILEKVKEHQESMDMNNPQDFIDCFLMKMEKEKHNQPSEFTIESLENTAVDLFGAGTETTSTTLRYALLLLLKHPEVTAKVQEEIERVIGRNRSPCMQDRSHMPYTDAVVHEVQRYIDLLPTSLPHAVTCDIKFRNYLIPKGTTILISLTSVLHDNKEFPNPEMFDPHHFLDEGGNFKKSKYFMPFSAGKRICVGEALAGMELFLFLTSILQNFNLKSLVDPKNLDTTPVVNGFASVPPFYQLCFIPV

[10] = target: CYP2C19 (Homo sapiens, UniProt P33261); experiment: Cytochrome P450 inhibition, CYP2C19; type: in vitro ADME
CYP2C19, sequence (P33261 whole entry): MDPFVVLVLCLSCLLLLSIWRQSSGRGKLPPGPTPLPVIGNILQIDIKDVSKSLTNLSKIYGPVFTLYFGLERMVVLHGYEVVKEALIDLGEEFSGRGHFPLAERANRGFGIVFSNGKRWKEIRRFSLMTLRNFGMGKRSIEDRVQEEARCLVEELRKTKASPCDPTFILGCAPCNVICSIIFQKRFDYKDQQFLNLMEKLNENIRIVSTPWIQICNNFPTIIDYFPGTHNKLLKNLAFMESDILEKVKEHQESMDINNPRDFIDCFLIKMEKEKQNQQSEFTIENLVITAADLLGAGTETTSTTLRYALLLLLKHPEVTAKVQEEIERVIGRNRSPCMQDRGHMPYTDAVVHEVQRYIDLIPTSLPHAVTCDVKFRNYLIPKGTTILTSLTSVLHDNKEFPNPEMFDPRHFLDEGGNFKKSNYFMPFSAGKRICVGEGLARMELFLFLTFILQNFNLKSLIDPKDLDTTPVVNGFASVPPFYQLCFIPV

[11] = target: CYP2D6 (Homo sapiens, UniProt P10635); experiment: Cytochrome P450 inhibition, CYP2D6; type: in vitro ADME
CYP2D6, sequence (P10635 whole entry): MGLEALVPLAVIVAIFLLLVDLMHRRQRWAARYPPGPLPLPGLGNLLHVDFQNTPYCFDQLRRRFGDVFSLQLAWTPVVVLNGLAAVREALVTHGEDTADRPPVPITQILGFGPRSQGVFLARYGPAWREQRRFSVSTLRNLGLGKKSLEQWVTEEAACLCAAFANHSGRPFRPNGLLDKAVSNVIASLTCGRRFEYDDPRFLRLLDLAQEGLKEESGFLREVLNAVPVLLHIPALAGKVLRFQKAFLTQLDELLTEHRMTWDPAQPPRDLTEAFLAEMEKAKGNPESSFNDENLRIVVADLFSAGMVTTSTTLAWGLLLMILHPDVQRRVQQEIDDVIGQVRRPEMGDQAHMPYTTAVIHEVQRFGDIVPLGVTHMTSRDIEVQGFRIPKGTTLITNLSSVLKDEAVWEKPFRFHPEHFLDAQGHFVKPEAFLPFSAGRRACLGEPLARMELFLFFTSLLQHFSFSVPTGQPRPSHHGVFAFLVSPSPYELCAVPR

[12] = target: CYP3A4 (Homo sapiens, UniProt P08684); experiment: Cytochrome P450 inhibition, CYP3A4; type: in vitro ADME
CYP3A4, sequence (P08684 whole entry): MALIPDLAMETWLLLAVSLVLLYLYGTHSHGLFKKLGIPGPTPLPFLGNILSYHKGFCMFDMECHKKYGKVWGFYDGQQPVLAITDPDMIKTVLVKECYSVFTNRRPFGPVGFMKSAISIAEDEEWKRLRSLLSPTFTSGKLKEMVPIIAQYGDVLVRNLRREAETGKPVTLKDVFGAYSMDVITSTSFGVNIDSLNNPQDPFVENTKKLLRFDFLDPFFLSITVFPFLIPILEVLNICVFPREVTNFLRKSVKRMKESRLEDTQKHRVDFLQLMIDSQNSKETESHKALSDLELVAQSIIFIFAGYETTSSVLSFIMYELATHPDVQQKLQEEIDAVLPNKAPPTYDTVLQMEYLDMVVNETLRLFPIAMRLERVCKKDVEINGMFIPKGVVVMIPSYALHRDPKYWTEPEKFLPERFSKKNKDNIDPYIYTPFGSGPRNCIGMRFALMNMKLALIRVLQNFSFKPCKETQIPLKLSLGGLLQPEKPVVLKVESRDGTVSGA

[13] = system: HepG2 cells; experiment: In vitro toxicity, HepG2 cell viability; type: cell-based

SMILES: c1cc(-c2cnn3cc(-c4ccc(N5CCNCC5)cc4)cnc23)c2cccnc2c1 [LDN-212854]
- solubility in aqueous solutions (in words) [1]: poorly soluble
- binding to serum proteins (in words) [2]: highly bound

SMILES: COc1cc(-c2cc(-c3ccc(N4CCNCC4)cc3)cnc2C)cc(OC)c1OC [LDN-214117]
- selectivity for ALK2 over ALK5 [3]: more than 100 fold

- pIC50 [4]: 7.32
SMILES: c1cncc(-c2n[nH]cc2-c2ccnc(Nc3ccc(N4CCNCC4)cc3)n2)c1 [Compound 1, N-[4-(Piperazin-1-yl)phenyl]-4-(3-pyridin-3-yl-1H-pyrazol-4-yl)pyrimidin-2-amine]

- aqueous solubility at pH 7.4 [5]: 10.6 μg/mL
- partition coefficient (log D, n-octanol/PBS, pH 7.4) [6]: 2.26
- PPB human (%) at 10 μM [7]: 97.8%
- CYP1A2 % inh. at 10 μM [8]: 28%
- CYP2C9 % inh. at 10 μM [9]: 30%
- CYP2C19 % inh. at 10 μM [10]: 34%
- CYP2D6 % inh. at 10 μM [11]: 30%
- CYP3A4 % inh. at 10 μM [12]: 82%
SMILES: c1ccc2c(-c3cnn4cc(-c5ccc(N6CCNCC6)cc5)cnc34)ccnc2c1 [LDN-193189]
- in vitro toxicity HepG2 cell (% viability at 30 μM) [13]: 77%
- solubility in aqueous solutions (in words) [1]: poorly soluble
- binding to serum proteins (in words) [2]: highly bound
